Source: PubChem BioAssay (NCI)
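48-hour exposure; five concentrations; linearly interpolated endpoints. TGI denotes the concentration required for complete inhibition of growth.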

Tests used:
Assay in all cases: NCI anticancer screen, dose series, 48 h
NCI-H460 lung = system: NCI-H460 lung
786-0 renal = system: 786-0 renal
MCF7 breast = system: MCF7 breast
COLO 205 colon = system: COLO 205 colon
M14 melanoma = system: M14 melanoma
SK-MEL-2 melanoma = system: SK-MEL-2 melanoma
MALME-3M melanoma = system: MALME-3M melanoma
DU-145 prostate = system: DU-145 prostate
HOP-92 NSCLC = system: HOP-92 NSCLC
A549 NSCLC = system: A549 NSCLC
MDA-MB-435 = system: MDA-MB-435

Measured: TGI

O=c1[nH]cc(NCCCl)c(=O)[nH]1
> 100 µM: all assays above

Oc1cc(Cc2ccccc2)c(Cc2ccccc2)cc1O
> 10 µM: all assays above

[N-]=[N+]=Nc1c(Cc2ccccc2)c(Cl)nc2ccccc12
58.8 µM: MCF7 breast
64.4 µM: HOP-92 NSCLC
35.2 µM: COLO 205 colon
33.4 µM: SK-MEL-2 melanoma
49.4 µM: M14 melanoma
37.2 µM: MDA-MB-435
41.8 µM: MALME-3M melanoma
> 100 µM: all other assays above

COc1cc2c(c3c1c(=O)c1ccccc1n3C)C=CC1(CCCC1)O2
24.6 µM: NCI-H460 lung
39.4 µM: MCF7 breast
27.6 µM: COLO 205 colon
25.1 µM: 786-0 renal
37.8 µM: MALME-3M melanoma
33.6 µM: SK-MEL-2 melanoma
47.1 µM: A549 NSCLC
35 µM: MDA-MB-435
31.6 µM: DU-145 prostate
31.7 µM: HOP-92 NSCLC
29.1 µM: M14 melanoma

COC(=O)C1=C(O)C(C(=O)OC)C2CC(=O)CC1C2(C)C (stereo not drawn)
> 100 µM: all assays above

CC(C)(C)c1ccc(OCCOc2ccc(C(C)(C)C)cc2N)c(N)c1
> 100 µM: all assays above

COc1ccc(N2CC(=O)N(C(=O)COc3ccc(OCC(=O)N4C(=O)CN(c5ccc(OC)cc5)C4=S)cc3)C2=S)cc1
> 100 µM: all assays above

Cn1nc2ccc([N+](=O)[O-])c(Cn3nnc4ccccc43)c2n1
> 100 µM: all assays above

Cc1ccc(S(=O)(=O)NC(=O)Nc2nnc(S(N)(=O)=O)s2)cc1
> 100 µM: all assays above

N#CN1C2CCC1CC(=O)C2
> 100 µM: all assays above

c1ccc(/C(=N/Nc2nc3ccccc3s2)C2CCCCC2)nc1
6.01 µM: MCF7 breast
27.7 µM: M14 melanoma
32.3 µM: SK-MEL-2 melanoma
76.1 µM: A549 NSCLC
34.2 µM: DU-145 prostate
20.9 µM: MALME-3M melanoma
21.9 µM: 786-0 renal
13.1 µM: COLO 205 colon
39.3 µM: MDA-MB-435
22.1 µM: HOP-92 NSCLC
26.1 µM: NCI-H460 lung

Cc1cc(C)nc(NS(=O)(=O)c2ccc(NC(=O)c3c4ccccc4nc4ccccc34)cc2)n1
> 100 µM: all assays above

CN(C)CC(O)c1ccc(Cl)c2ccccc12 (stereo not drawn)
49.2 µM: COLO 205 colon
39.7 µM: SK-MEL-2 melanoma
61.2 µM: MDA-MB-435
86 µM: MALME-3M melanoma
> 68.2 µM: HOP-92 NSCLC
> 81.8 µM: MCF7 breast
33 µM: M14 melanoma
> 100 µM: all other assays above
